# Measurements as given in patent publication US11738099B2, “Molecular probes and methods of use” (CASE WESTERN RESERVE UNIVERSITY, priority 2014, dated 2023).
# Where no end group is shown, it is not given here.
# Key:
# [1] = system: PC3 spheroids; experiment: ZD2-Cy5.5 binding, 3D matrigel culture of PC3 cells; assay type: cell-based; settings: 250 nM, 1 h
# Protocol: (§1) All reagents for chemical synthesis were purchased from Sigma Aldrich unless stated otherwise. PC3 and LNCaP cells were purchased from American Type Culture Collection (ATCC, Manassas, Va., USA), and grown in RPMI medium (Thermo Fisher Scientific, Waltham, Mass., USA) supplemented with 10% Fetal Bovine Serum (FBS) and 1% Penn/Strep at 37° C. in 5% CO2. To construct GFP-expressing cell lines, cells were transfected with lentivirus as previously reported. Matrigel 3D culture was formed following the 3D “on-top” protocol. Briefly, a glass-bottom plate was coated with a thick layer of freshly thawed matrigel, followed by solidifying the matrigel at 37° C. for 15-30 min. Cells were then plated onto the coated plate with medium containing 5% matrigel. The culture was maintained for at least 4-6 days and then ZD2-Cy5.5 (250 nM) was added to the culture medium. After 1 h, cells in the 3D matrigel were imaged with confocal laser fluorescence microscopy.
# [2] = system: LNCaP prostate tumor xenografts; experiment: Ex vivo fluorescence imaging and sections, LNCaP mouse model; assay type: in vivo; settings: confocal microscopy
# Protocol: (§2) After fluorescence imaging of the organs, they were embedded in O.C.T and sectioned at 5 μm thickness, and mounted on to glass slides. The slides were fixed and permeabilized with cold acetone, followed by blocking with 1% BSA for 1 hour. DAPI or EDB-FN specific antibody, BC-1 (Abcam, Cambridge, Mass.), were applied subsequently for staining. Unbound antibodies were washed with TBS-T (0.1%). Alexa Fluor 594-conjugated goat anti-mouse IgG H&L (Abcam) was used as the secondary antibody. Prolong Gold antifade solution (Invitrogen, Grand Island, N.Y.), was used to cover the slides. The stained tissue sections were imaged using confocal laser scanning microscopy.
# (§3) The targeted binding of ZD2-Cy5.5 to the prostate tumor was assessed ex vivo using Maestro FLEX In vivo Imaging System (Caliper Life Sciences, Hopkinton, Mass.) using a red filter set (spectral range of 630-910 nm, 1000 ms exposure time). ZD2-Cy5.5 (10 nmol) was administered to study the in vivo distribution of ZD2-based probes. At 3 h post-injection, the mice were sacrificed to image the tumors and the organs.
# [3] = system: MCF-7 cells; experiment: ZD2-Cy5.5 binding, 3D culture of MCF-7 cells; assay type: cell-based; settings: 250 nM, 1 h, confocal microscopy
# Protocol: (§4) MDA-MB-231, Hs578T, BT549, MCF-7, ZR-75-1 and T47D were acquired from American Type Culture Collection (ATCC, Rockville, Md., USA). MDA-MB-231 cells were maintained in Dulbecco Modified Eagle Medium (DMEM) supplemented with 10% fetal bovine serum (FBS) and 5% penicillin/streptomycin (pen/strep). Hs578T, BT549 and MCF-7 cells were maintained in Eagle Minimum Essential Medium (EMEM) supplemented with 0.01 mg/ml human recombinant insulin, 10% FBS and 5% pen/strep. ZR-75-1 and T47D were maintained in RPMI 1640 medium supplemented with 10% FBS and 5% pen/strep. Three-dimensional culture of cells was achieved by an “on-top” matrigel method reported previously. Briefly, on a glass-bottom plate a thick layer of matrigel was coated, followed by plating MDA-MB-231 or MCF-7 cells on top of the matrigel. Once 3D sphere or clusters formed, ZD2-Cy5.5 was added to the medium to the final concentration of 250 nM. Binding of ZD2-Cy5.5 to the 3D spheres was evaluated using a confocal laser scanning microscope (Olympus Corporation, Tokyo, Japan) after culturing for 1 h.
# [4] = system: PC3 prostate tumor xenografts; experiment: Ex vivo fluorescence imaging, PC3 mouse model; assay type: in vivo; settings: 3 hours after intravenous injection, 10 nmol
# Protocol: as §2, §3
# [5] = system: LNCaP cell clusters; experiment: ZD2-Cy5.5 binding, 3D matrigel culture of LNCaP cells; assay type: cell-based; settings: 250 nM, 1 h
# Protocol: as §1
# [6] = system: MDA-MB-231 tumours; experiment: Fluorescence imaging of tumours, organs and sections, MDA-MB-231 model; assay type: in vivo, mouse
# Protocol: (§5) To determine the distribution of ZD2-Cy5.5 in the major organs and tumours, 10 nmol ZD2-Cy5.5 was injected in tumour-bearing mice through the tail vein. At 3 h after injection, mice were sacrificed. Tumours and organs were collected and imaged with CSi Maestro imaging system (Woburn, Mass., USA) using the deep red filter sets (exposure time: 1000 ms).
# (§6) Tumours were embedded in Optimum Cutting Temperature Compound (OCT) and kept froze in −80° C. Tumour tissues sectioned at the thickness of 5 μm were then fixed and permeabilized with cold acetone. BSA (1%) in PBS was used to block the tissue at room temperature for 1 hour. Mouse anti-EDB-FN antibody, BC-1 (ab154210, Abcam, Cambridge, Mass., USA), diluted with 1% BSA (1:500) was applied to the tissue and incubated at room temperature for 1 hour. After extensive washing, AlexFluor594-conjugated anti-mouse IgG antibody (1:500) (Invitrogen, Eugene, Oreg., USA) was applied and incubated with the tissue for 1 hour. Tissue sections were then counterstained with Prolong Gold antifade mounting medium with DAPI (Invitrogen). Confocal laser scanning microscopy (FV1000, Olympus, Japan) was used to acquire the fluorescence images of the tissues. H&E staining of the tissue was performed at the tissue resource core of Case Western Reserve University. H&E staining images were acquired using the Virtual slide microscope VS120 (Olympus).
# [7] = system: MDA-MB-231 spheres; experiment: ZD2-Cy5.5 binding, 3D culture of MDA-MB-231 cells; assay type: cell-based; settings: 250 nM, 1 h, confocal microscopy
# Protocol: as §4
# [8] = system: MCF-7 tumours; experiment: Fluorescence imaging of tumour sections, MCF-7 model; settings: mouse, in vivo
# Protocol: as §5, §6
# [9] = Size by TEM and DLS; assay type: physicochemical
# [10] = system: MCF-7 tumours; experiment: MRI at 1.0 Tesla, MCF-7 tumours; assay type: in vivo, mouse; settings: 1.67 μmol/kg i.v.
# Protocol: MR images of the mice bearing MDA-MB-231 or MCF-7 tumour xenografts were acquired on an Aspect M3 small animal MRI scanner (1 Tesla). Mice were placed on a holder with the temperature maintained at 37° C., with isoflurane/oxygen mixture supplied to the mice through a nose cone. A thin catheter filled with PBS was connected to the tail vein of the mice. After mice were placed in the coil, a pilot scan was performed to adjust mice to the proper location in the coil. An axial T1-weighted sequence (TR=500 ms; TE=9 ms; Flip angle=90°; Field of view=3 cm×3 cm; Matrix size=128×128×8; slice thickness=2 mm; inter-slice distance=1 mm) was then used to acquire the images of the tumours before and 10 min, 20 min, and 30 min after contrast injection. Images were exported into DICOM data, which were then processed and analyzed using Matlab (Natick, Mass., USA). The contrast-to-noise ratio of tumours in the images was calculated as the difference between tumour mean intensity minus muscle mean intensity, divided by the noise. Three-dimensional images of mice were acquired using a gradient echo T1-weighted sequence with the following parameters: TR=17 ms; TE=6 ms; Flip angle=15°; Field of view=3.5 cm×8 cm; Matrix size=128×512×16; slice thickness=1.5 mm. […] The images were similarly analyzed as described above.
# [11] = system: Hs578T and ZR-75-1 xenografts; experiment: MRI at 7 T, mice bearing Hs578T and ZR-75-1 xenografts; assay type: in vivo, mouse; settings: 20 μmol Gd/kg, 30 min
# Protocol: (§7) Female athymic nude mice were purchased from the Case Comprehensive Cancer Center and housed in the Case Center Imaging Research. All animal experiments were carried out according to a protocol approved by the IACUC of Case Western Reserve University. To initiate tumour xenografts, cells cultured in 150 mm dishes were trypsinized and centrifuged. Cell pellets from each dish were suspended in 100 μL PBS and reconstituted with Corning Matrigel Matrix High Concentration (Corning, Corning, N.Y., USA) to a concentration of 2×10^7 cells/mL on ice. The suspended cells in 100 μL matrigel solution were injected subcutaneously in the flank of mice (4-6 weeks) using a 19-gauge needle. After injection, a plug in flank was formed due to matrigel gelling. Tumours were allowed to grow for at least a month before imaging. […]
# (§8) MR images of the mice bearing MDA-MB-231 or MCF-7 tumour xenografts were acquired on an Aspect M3 small animal MRI scanner (1 Tesla). […] Images were exported into DICOM data, which were then processed and analyzed using Matlab (Natick, Mass., USA). The contrast-to-noise ratio of tumours in the images was calculated as the difference between tumour mean intensity minus muscle mean intensity, divided by the noise. […] The images were similarly analyzed as described above.
# [12] = In vitro transmetallation assay with human serum; assay type: in vitro ADME; settings: 2 h
# Protocol: We performed in vitro transmetallation assay according to the protocol reported previously. Briefly, ZD2-Gd3N@C80 (0.02 mM Gd/mL) was incubated with human serum for 2 h. According to previous reports, transmetallation of Gd with Zn^2+, Cu^2+ and Ca^2+ bound in serum proteins occurs rapidly and 2 h is sufficient to study the equilibrium of transmetallation. The mixtures were then centrifuged at 4000 rpm and 25° C. for 150 min using CF-10 centrifugal filters (molecular weight cutoff 10 kDa). Metal ions in both the upper reservoir and the filtrates were quantified by ICP-OES. […] The degree of transmetallation of ZD2-Gd3N@C80 with Zn^2+, Cu^2+ and Ca^2+ ions in serum was evaluated using the percentage of Zn^2+, Cu^2+ and Ca^2+ ions filtered through the membrane, calculated as Transmetallation (%)=(concentration of ions in the filtrates)/(total ion concentrations before filtration)×100. Human serum was used a control.
# [13] = Water solubility; assay type: physicochemical; settings: gadofullerene agent
# [14] = Relaxivity measurement of gadofullerenes; assay type: physicochemical
# Protocol: Infrared spectrum of ZD2-Gd3N@C80 was performed using the Cary 630 FTIR Spectrometer (Agilent Technologies, Santa Clara, Calif., USA). Lyophilized hydroxylated Gd3N@C80 or ZD2-Gd3N@C80 was reconstituted to a serial dilution in water. The solutions were pipetted in NMR tubes (500 μL in each tube), and placed in a relaxometer (Bruker) at 1.5 Tesla. For relaxivity measurement at 7 Tesla, NMR tubes containing contrast agent solutions were bundled and placed in a mouse coil in a horizontal 7 Tesla Bruker scanner (Bruker Biospin Co., Billerica, Mass.). T, maps of the solutions were acquired using a previously reported method^29. T1 and T2 values of each solution were measured. The r1 and r2 relaxivities of the contrast agent were calculated as the slope of the plot of 1/T1 and 1/T2 relaxation rates against the concentrations.
# [15] = system: MDA-MB-231 tumours; experiment: MRI at 1.0 Tesla, MDA-MB-231 tumours; assay type: in vivo, mouse
# Protocol: MR images of the mice bearing MDA-MB-231 or MCF-7 tumour xenografts were acquired on an Aspect M3 small animal MRI scanner (1 Tesla). Mice were placed on a holder with the temperature maintained at 37° C., with isoflurane/oxygen mixture supplied to the mice through a nose cone. A thin catheter filled with PBS was connected to the tail vein of the mice. After mice were placed in the coil, a pilot scan was performed to adjust mice to the proper location in the coil. An axial T1-weighted sequence (TR=500 ms; TE=9 ms; Flip angle=90°; Field of view=3 cm×3 cm; Matrix size=128×128×8; slice thickness=2 mm; inter-slice distance=1 mm) was then used to acquire the images of the tumours before and 10 min, 20 min, and 30 min after contrast injection. Images were exported into DICOM data, which were then processed and analyzed using Matlab (Natick, Mass., USA). The contrast-to-noise ratio of tumours in the images was calculated as the difference between tumour mean intensity minus muscle mean intensity, divided by the noise. Three-dimensional images of mice were acquired using a gradient echo T1-weighted sequence with the following parameters: TR=17 ms; TE=6 ms; Flip angle=15°; Field of view=3.5 cm×8 cm; Matrix size=128×512×16; slice thickness=1.5 mm. Analysis of the change in signal intensity in muscle, heart, liver, kidney, and bladder was performed using Matlab. MRI at 7 Tesla was performed on a horizontal Bruker scanner. T1-weighted spin echo sequence with the following parameters was used: field of view (FOV): 3 cm; slice thickness: 1.2 mm; interslice distance: 1.2 mm; TR: 500 ms, TE: 8.1 ms; flip angle: 90°; average: 2; matrix size: 128×128. The images were similarly analyzed as described above.
# [16] = system: BT549 and T47D xenografts; experiment: MRI at 7 T, mice bearing BT549 and T47D xenografts; assay type: in vivo, mouse; settings: 20 μmol Gd/kg, 30 min
# Protocol: as §7, §8
substance,measurement,setting,value
ZD2-Cy5.5: linear ZD2 peptide with PEG spacer conjugated to Cy5.5 NHS ester (TVRTSAD; also: PEG spacer conjugated to Cy5.5 NHS ester),binding to PC3 spheroids,[1],able to bind EDB-FN secreted by the PC3 spheroids
same,probe in LNCaP tumor sections,[2],undetectable
same,binding and fluorescence of MCF-7 cells,[3],lower ZD2-Cy5.5 binding and weaker fluorescence intensity
same,fluorescence signal of PC3 tumors vs normal organs,[4],enhanced fluorescence signal
same,binding to LNCaP cell clusters,[5],no peptide binding was detected
same,fluorescence intensity in MDA-MB-231 tumours vs MCF-7 tumours and normal tissues,"[6]; 0.5 μmol/kg i.v., 3 hours after injection",greater
same,fluorescence signal in the liver and kidneys,[6]; 3 hours after injection,Relatively high fluorescence signal intensity
same,Cy5.5 fluorescence of MDA-MB-231 tumour sections,"[6]; mouse, in vivo",strong Cy5.5 fluorescence
same,fluorescence of MDA-MB-231 spheres,[7],strong fluorescence intensity
same,ZD2-Cy5.5 binding in MCF-7 tumour sections,[8],little
"ZD2-Gd3N@C80: ZD2-Cys peptide conjugated to maleimido hydroxylated gadofullerene Gd3N@C80, about one peptide per cage (CTVRTSAD; also: conjugated to maleimido hydroxylated gadofullerene Gd3N@C80, about one peptide per cage)",average radius,[9]; DLS,1.40 nm
same,average diameter,[9]; TEM and DLS,2.8 nm
same,signal enhancement in MCF-7 tumours,[10],little enhancement
same,signal enhancement and CNR increase in Hs578T vs ZR-75-1 tumours,[11],greater signal enhancement and significantly higher CNR increase
same,transmetallation,[12],< 0.12%
same,water solubility,[13],complete water solubility
same,r1 relaxivity per Gd(III) ion,[14]; 1.5 Tesla,74.6 mM⁻¹ s⁻¹
same,r1 relaxivity per molecule,[14]; 1.5 Tesla,223.8 mM⁻¹ s⁻¹
same,r1 relaxivity per Gd(III) ion,[14]; 7 Tesla,24.78 mM⁻¹ s⁻¹
same,r1 relaxivity relative to clinical Gd(III)-based contrast agents,[14]; vs Gd-DTPA and Gd(HP-DO3A),~20 times
same,signal enhancement in MDA-MB-231 tumours,"[15]; 1.67 μmol/kg i.v., 1.0 Tesla, at least 30 minutes",Significant signal enhancement
same,signal enhancement in MDA-MB-231 tumours with co-injection of ZD2 peptide,[15]; 1.67 μmol/kg with 25 μmol/kg ZD2 peptide,significantly reduced the signal enhancement
same,increase of contrast-to-noise ratio (CNR) in MDA-MB-231 tumours,"[15]; 1.67 μmol/kg, 10-30 min",39 to 45%
same,signal enhancement and CNR increase in BT549 vs T47D tumours,[16],greater signal enhancement and significantly higher CNR increase
